In patent US9975910B2, “Hetero-fused cyclic compound” (Eisai R&D Management Co., Ltd., priority 2013, dated 2018):
≈ marks a conversion by molar mass, not a printed value.

Legend:
[1] = test system: C. albicans CAF2-1 strains; test: Anticandidal activity (MIC measurement); type: cell-based; conditions: for MIC: Candida albicans, CAF21STRAINS; for Anticandidal activity compared with amphotericin B: result in words
Procedure: The anticandidal activity of Reference Examples 1, 2, and 3 and Comparative Examples 1, 2, and 3 produced using Examples and amphotericin B was measured as follows.
C. albicans CAF2-1 strains were subjected to static culture in a Sabouraud dextrose liquid culture medium (SDB) at 30° C. for 48 hours; and the bacterial suspension was diluted with an RPMI1640 culture medium to prepare a 1.2×10^3 cells/mL bacterial suspension.
The diluted solutions of eight test compounds in plates (A to H) were prepared using a U-bottomed 96-well plate. 10 μL of a dimethyl sulfoxide solution was poured into columns 2 to 12 of the individual plates. The weighed test compounds were separately dissolved in dimethyl sulfoxide to prepare 2.5 mg/mL solutions; then, these solutions (20 μL) were placed in column 1 of the prepared plates, and were subjected to two-fold serial dilution in 12 steps on the plates (10 μL of solution+10 μL of dimethyl sulfoxide solution). The diluted solutions of the test compounds each were placed in a flat-bottomed 96-well plate for MIC measurement in an amount of 1 μL to prepare plates of the diluted test compound.
The bacterial suspension prepared in (1) (99 μL/well) was inoculated into the flat-bottomed 96-well plate containing the diluted solutions of the test compounds (1 μL/well) prepared in (2), and was subjected to static culture at 35° C. for 42 to 48 hours under an aerobic condition.

[2] = Evaluation on solubility (HPLC-UV, phosphate-buffered saline); type: physicochemical; conditions: for solubility: aqueous buffer, kinetic from dmso stock, Dulbecco's phosphate-buffered saline pH 7 (GIBCO), room temperature, about 15 minutes shaking; for Solubility compared with Comparative Example 1 and Comparative Example 2: phosphate-buffered saline pH 7, result in words
Procedure: The supernatant was then separated through vacuum filtration operation. A dimethyl sulfoxide solution (sample concentration: 100 μM) was used as a standard solution, and the sample concentration in the supernatant determined by an HPLC-UV method was defined as solubility. Test solution: pH of 7, GIBCO™ (Dulbecco's phosphate-buffered saline, Invitrogen Corporation)

[3] = Evaluation on lipid solubility: distribution ratio (D) of 1-octanol to water by ODS column HPLC; type: physicochemical; conditions: 1-octanol/water, pH 6.8, from HPLC retention on ODS column
Procedure: A parameter of lipid solubility, i.e., a distribution ratio (D) of a 1-octanol to water (pH: 6.8) was determined with an ODS (silica gel having a surface modified with an octadecylsilyl group) column by the following method.
The mobile phase shown in Table 2 was added to sodium nitrate (to marker) and six standard substances having known partition coefficients shown in Table 2 to prepare mixed solutions each containing 5 μg/mL sodium nitrate and a 10 μg/mL or 10 μL/mL standard substance; these mixed solutions were used as standard solutions. The mobile phase shown in Table 3 was added to a sample, the concentration was adjusted to 0.1 mM to prepare a sample solution. HPLC analysis of the standard solutions and the sample solution was performed on the following conditions, and the retention times (tr) of the standard substances and the sample were measured. From the retention factor (kstd) determined from the partition coefficient (log P) of the standard substance and Expression I, the regression coefficient (a) and the constant term (b) in Expression II were determined; using Expression III, the partition coefficient (log D) at a pH of 6.8 was calculated from the retention factor (ksmpt) of the sample; finally, the distribution ratio (D) of 1-octanol to water (pH: 6.8) was obtained.
Reference: Exploring QSAR-Hydrophobic, and Steric Constants, Corwin Hansch, Albert Leo, and David Hoekman, ACS Professional Reference Book k=(tr−t0)/t0 Expression I log P=a×log kstd+b Expression II log D=a×log ksmp+b Expression III (2) Measurement Conditions

[4] = Metabolic stability of pooled human liver microsomes; type: in vitro ADME; conditions: for Residual rate of unchanged substance (%): 0.3 μM compound, 0.2 mg/mL microsomes, 37° C., NADPH; for microsomal CLint at 0.3 μM: ke/(concentration of pooled human liver microsomes), read-out: Hepatic intrinsic clearance; for Clearance of human liver microsomes compared with the respective Comparative Example: result in words
Procedure: Evaluations on the metabolic stability of human liver microsomes prepared in Reference Examples 1 and 2 and Comparative Examples 1 and 2 produced using Examples were performed as follows.
A test compound was added to an enzyme solution (pooled human liver microsomes (0.2 mg/mL), 100 mM Kpi, containing 0.1 mM EDTA), and was incubated in the presence of a coenzyme for a predetermined time at 37° C. The final concentration of the test compound was 0.3 μM. As the coenzyme, an NADPH-generating system (solution in which 60 mM MgCl2 solution containing 3.6 mM β-NADP^+, 90 mM glucose-6-phosphate, and 1 Unit/mL glucose-6-phosphate dehydrogenated enzyme was incubated at 37° C. for 5 minutes to generate NADPH) was used. After pre-incubation, part of the reaction solution was extracted; a double amount of a mixed solution of acetonitrile and methanol (7:3, containing 1.0 μM Propranolol as an internal standard substance) was added to terminate the reaction, and the concentration of the unchanged substance in the reaction solution was measured by LC-MS/MS. Based on the peak area of the unchanged substance obtained, the residual rate (%) of the unchanged substance was calculated wherein the residual rate at 0 min (incubation time) was 100%. Namely, the inclination of the straight line obtained when the value obtained by natural logarithmic conversion of the residual rate of the unchanged substance after a predetermined reaction time was plotted as the ordinate, and the reaction time was plotted as the abscissa was defined as an elimination rate constant (ke). Based on the obtained elimination rate constant ke, the hepatic intrinsic clearance of the test compound was calculated with the following expression: Hepatic intrinsic clearance (mL/min/mg protein)=ke/(concentration of pooled human liver microsomes: mg protein/mL)

[5] = standard substances, known values (Hansch, Leo, Hoekman); cited from earlier work
[6] = RPMI1640, 35° C., 42 to 48 hours, visually determined

Row | SMILES | Anticandidal activity (MIC) [1, 6] [µg/mL] | solubility [2] [µM] | chromatographic logD [3] | Residual rate of unchanged substance (%) ([4]; After 0 min (defined as 100%)) | Residual rate of unchanged substance (%) ([4]; After 15 min) | Residual rate of unchanged substance (%) ([4]; After 30 min) | Residual rate of unchanged substance (%) ([4]; After 60 min) | microsomal CLint at 0.3 μM [4] [µL/min/mg] | MIC [1, 6] [µg/mL] | Anticandidal activity compared with amphotericin B [1] | Solubility compared with Comparative Example 1 and Comparative Example 2 [2] | Clearance of human liver microsomes compared with the respective Comparative Example [4] | Partition coefficient (logP) [5]
1 | C[C@@H]1[C@H](O)[C@@H](C)/C=C/C=C/C=C/C=C/C=C/C=C/C=C/[C@H](O[C@@H]2O[C@H](C)[C@@H](O)[C@H](N)[C@@H]2O)C[C@@H]2O[C@](O)(C[C@@H](O)C[C@@H](O)[C@H](O)CC[C@@H](O)C[C@@H](O)CC(=O)O[C@H]1C)C[C@H](O)[C@H]2C(=O)O [Amphotericin B] | 1.6 | – | – | – | – | – | – | – | – | – | – | – | –
2 | Cc1cc(Cc2ccc(CNC(=O)c3ccc(N)nc3N)cc2)sc1C [Comparative Example 1, 2,6-Diamino-N-({4-[(4,5-dimethylthiophen-2-yl)methyl]phenyl}methyl)-pyridine-3-carboxamide, reference compound] | – | 0.2 (≈ 0.0733 µg/mL) | 3.27 | 100.0 | 93.1 | 77.0 | 56.2 | 50 | 0.13 (≈ 0.355 µM) | strong anticandidal activity equal to that of amphotericin B | – | – | –
3 | Cc1nc(N)c(C(=O)NCc2ccc(COc3ccccn3)cc2)nc1C [Comparative Example 2, 3-Amino-5,6-dimethyl-N-({4-[(pyridin-2-yloxy)methyl]phenyl}methyl)pyrazine-2-carboxamide, reference compound] | – | 0.9 (≈ 0.327 µg/mL) | 3.26 | 100.0 | 73.0 | 53.7 | 30.9 | 98 | 0.063 (≈ 0.173 µM) | strong anticandidal activity equal to that of amphotericin B | – | – | –
4 | Cc1cc(C(=O)NCc2ccc(OCc3ccccc3)cc2)c(N)nc1C [Comparative Example 3, 2-Amino-N-(4-(benzyloxy)benzyl)-5,6-dimethylnicotinamide, reference compound] | – | – | 3.41 | 100.0 | 65.0 | – | – | 150 | 0.13 (≈ 0.36 µM) | strong anticandidal activity equal to that of amphotericin B | – | – | –
5 | Nc1ccc(C(=O)NCc2ccc(Cc3cc4c(s3)COC4)cc2)c(N)n1 [Reference Example 1] | – | 13.9 (≈ 5.29 µg/mL) | 2.15 | 100.0 | 83.6 | 75.9 | 61.4 | 39 | 0.25 (≈ 0.657 µM) | strong anticandidal activity equal to that of amphotericin B | higher | improved | –
6 | Nc1nc2c(nc1C(=O)NCc1ccc(COc3ccccn3)cc1)COC2 [Reference Example 2, 5-Amino-N-({4-[(pyridin-2-yloxy)methyl]phenyl}methyl)-1,3-dihydrofuro[3,4-b]pyrazine-6-carboxamide] | – | 2.1 (≈ 0.793 µg/mL) | 2.72 | 100.0 | 87.0 | 77.6 | 65.4 | 35 | 0.5 (≈ 1.32 µM) | strong anticandidal activity equal to that of amphotericin B | higher | improved | –
7 | Nc1nc2c(cc1C(=O)NCc1ccc(OCc3ccccc3)cc1)COC2 [Reference Example 3] | – | – | 2.72 | 100.0 | 78.0 | – | – | 82 | 2 (≈ 5.33 µM) | strong anticandidal activity equal to that of amphotericin B | – | improved | –
8 | CCCCc1ccccc1 [n-Butylbenzene] | – | – | – | – | – | – | – | – | – | – | – | – | 4.38
